# Measurements from patent US4199579A, “Carbamates of 2-haloergolines and 2-haloergolenes and process for the preparation thereof” (priority 1975, dated 1980).
# Counter-ions that a name gives are not always drawn. Like-named read-outs stand apart in the source and are kept apart here.
# Tests used:
# Anti-Parkinson activity = experiment: Anti-Parkinson activity; format: in vivo; settings: po; orally
# ptosis from reserpine = experiment: Antagonism to ptosis from reserpine; format: in vivo; settings: po; orally; read-out: Antagonism to ptosis from reserpine ED100
# Antidepressant activity = experiment: Antidepressant activity; format: in vivo; settings: route not given
# Excerpt: (§1) Coming now to examining the anti-asthmatic pharmaceutical compositions it has been ascertained that the compound described as D-2-bromo-6-methyl-8beta-(morpholinocarbolynoxymethyl)-ergoline, corresponding to the formula (4) is endowed with quite special [drawing 81] which render it particularly recommendable for the therapy of asthma. The compound of the formula (4) has the empirical formula C21 H26 N3 O3 Br and a mol. wt. of 448.38. It gives, with mineral and organic acid of nontoxic and pharmacologically acceptable nature, a number of salt. These are soluble in water as well as in the physiological solutions. Such are for example the maleate C25 H30 N3 O7 Br, m.p. 213° C.-216° C., or the methanesulfonate C22 H30 N3 O6 BrS, m.p. 265° C.-266° C. and can be prepared according to the conventional methods by treating the compound (4) with the equivalent quantities of the acid in an aqueous medium or in appropriate organic solvents and their mixtures such as the alcohols, the ethers, the lower aliphatic ketones and others, taken individually or in appropriate mixtures with each other as will be detailed in the Examples hereinafter. The pharmacological activity of the compound of formula (4) is unfolded in appropriate assays, carried out on the test animals and is especially conspicuous in the following test runs: […]
# [1] = test system: alpha-adrenergic receptors; experiment: Antiadrenalic (antiadrenergic) activity in vitro (a): antagonism of the spasmogenic effect of adrenaline on the seminal vesicle; format: cell-based, guinea pig
# Excerpt: More particularly the novel compounds display a vasodilatory activity on the peripheral circulatory system, an hypotensive activity and a spasmolytic effect on the gastrointestinal smooth muscles or a blocking activity towards the alpha-adrenergic receptors, both in "vitro" and in "vivo".
# (a) J. Brugger, Helv. Physiol. Pharmacol. Acta 3, 117 (1945)
# The product is antagonizing the spasmogenic effect of the adrenaline on the seminal vesicle of guinea pig at concentrations of between 0.1 and 10 pg/ml, as well as the vaso- constricting effect of the noradrenaline on the isolated and perfused caudal arteria of rat, at dosages of between 1 and 10 μg total. Furthermore it antagonizes the contracturing effect of adrenaline and noradrenaline on the "vas deferens" of guinea pig and rat, at concentrations of 0.1 to 10 ng/ml.
# [2] = test system: alpha-adrenergic receptors; experiment: Antiadrenalic activity in vivo (b): protection of rats from the lethal effect of adrenaline; parameters: species or system rat; settings: e.v.; Table 2
# [3] = test system: isolated ileum of guinea pig; experiment: AntiBaCl2 activity in vitro (c): antagonism of the spasmogenic action of barium chloride on the isolated ileum; format: cell-based; settings: Cavia porcellus, read-out: AntiBaCl2 (c) vitro EC50
# Procedure: (c) Magnus, Pflugers Arch.Ges.Physiol. 102, 123 (1904)
# The substance antagonizes the spasmogenic action of the barium chloride on the isolated ileum of guinea pig at dosages of between 1 and 5 μg/ml. […] On the isolated caudal arteria of rat, the compound II inhibits the vaso-constricting effect as caused by the perfusion with hyperpotassium Ringer's solution.
# Acute toxicity in mice = format: in vivo, mouse; settings: mouse, in vivo, iv, e.v.; mouse; Table 2; read-out: DL50 e.v. in the mouse
# Excerpt: |Toxicity LD50 mice orally
# Myorelaxing activity = experiment: Myorelaxing activity; format: in vivo; settings: route not given
# Excerpt: as §1
# [4] = target: alpha-adrenergic receptors; settings: in vitro; comparison compound, reference (d) or (e); cited from earlier work
# [5] = test system: alpha-adrenergic receptors; settings: e.v.; comparison compound, reference (e); cited from earlier work
# Anorexia = experiment: Anorexia; format: in vivo; settings: po; orally
Compound,Antiadrenalic activity (a) vitro EC50 [1] [µg/mL],Antiadrenalic activity (b) vivo ED50 [2] [mg/kg],EC50 [3] [µg/mL],LD50 (Acute toxicity in mice) [mg/kg],further results
"N[C@@H](Cc1ccc(O)c(O)c1)C(=O)O [L-dopa, reference compound]",,,,,ED100 (Anti-Parkinson activity): 300 mg/kg
"CN(C)CCCN1c2ccccc2CCc2ccccc21 [imipramine, reference compound]",,,,,ED100 (ptosis from reserpine): 25 mg/kg; ED100 (Antidepressant activity): 25 mg/kg
"CN1C[C@H](COC(=O)N2CCCCC2)C[C@@H]2c3cccc4[nH]c(Br)c(c34)C[C@H]21 [Example 12, D-2-bromo-6-methyl-8beta-(piperidinocarbonyloxymethyl)-ergoline]",0.0037,0.0202,3.5,50,
"CCC1(c2ccccc2)C(=O)NC(=O)NC1=O [phenobarbital, reference compound]",,,,,ED100 (Myorelaxing activity): 100 mg/kg
"CN1C[C@H](COC(=O)N2CCC2)C[C@@H]2c3cccc4[nH]c(Br)c(c34)C[C@H]21 [Example 7, D-2-bromo-6-methyl-8beta-(azetidinylcarbonyloxymethyl)-ergoline]",0.005,0.05,1.4,8.7,
dihydroergotoxine,,,,,Antiadrenalic activity (a) vitro EC50 [4]: 0.078 µg/mL; Antiadrenalic activity (b) vivo ED50 [5]: 0.05 mg/kg
"CN1C[C@H](COC(=O)N2CCCC2)C[C@@H]2c3cccc4[nH]c(Br)c(c34)C[C@H]21 [Example 10, D-2-bromo-6-methyl-8beta-(pyrrolydycarbonyloxy-methyl)-ergoline maleate]",0.002,0.0155,4,15,
"CO[C@]12C[C@@H](COC(=O)c3cncc(Br)c3)CN(C)[C@@H]1Cc1cn(C)c3cccc2c13 [nicergoline, reference compound]",,,,74.3,EC50 ([3]; in vitro): 2.1 µg/mL; Antiadrenalic activity (a) vitro EC50 [4]: 0.007 µg/mL; Antiadrenalic activity (b) vivo ED50 [5]: 0.02 mg/kg
"CC(N)Cc1ccccc1 (stereo not drawn) [amphetamine, reference compound]",,,,,ED100 (Anorexia): 5 mg/kg
"CN1CCN(C(=O)OC[C@@H]2C[C@@H]3c4cccc5[nH]c(Br)c(c45)C[C@H]3N(C)C2)CC1 [Example 18, D-2-bromo-6-methyl-8beta-(4,methylpiperazinyl-carbonyloxymethyl)-ergoline]",0.05,> 0.32,> 100,27.3,
"CN(C)C(=O)OC[C@@H]1C[C@@H]2c3cccc4[nH]c(Br)c(c34)C[C@H]2N(C)C1 [Example 4, D-2-bromo-6-methyl-8beta-(N,N-dimethylcarbamoyloxymethyl)-ergoline]",0.01,0.0112,10,7.1,
"CCN(CC)C(=O)OC[C@@H]1C[C@@H]2c3cccc4[nH]c(Br)c(c34)C[C@H]2N(C)C1 [Example 6, D-2-bromo-6-methyl-8beta-(N,N-diethylcarbamoyloxymethyl)-ergoline]",0.0047,0.0803,3.8,13.7,
"CN1C[C@H](COC(=O)N2CC3CCC(CC3)C2)C[C@@H]2c3cccc4[nH]c(Br)c(c34)C[C@H]21 [Example 20, D-2-bromo-6-methyl-8beta-(3-azabicyclo [3,2, 2]-nonanylcarbonyloxymethyl)-ergoline]",0.375,0.198,> 100,50,
